The values that follow come from the METLIN SMRT retention time set (Domingo-Almenara et al. 2019).

Each structure is given as a SMILES string.

The data set is described as follows: gradient 5% acetonitrile 3 min, to 50% in 2 min, to 85% in 15 min, held 3 min, 100 µL/min. The settings on record: column: Zorbax Extend-C18 2.1 x 50 mm; eluents: water / acetonitrile, 0.1% formic acid. In short, it runs like this:
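Mixtures of ~100 pure standards were chromatographed on a Zorbax Extend-C18 column (2.1 × 50 mm, 1.8 μm) at 100 μL/min using water and acetonitrile, each with 0.1% formic acid. Detection used a quadrupole time-of-flight mass spectrometer in positive and negative ionization mode, and data collection spanned 3 months. Retention time was obtained from adduct peaks picked computationally and each checked manually.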
Turning to `CC(C)CC(=O)N[C@H](Cc1ccccc1)C(=O)NCc1cscn1`, the RP-LC retention time came to 699 s.

As for `O=C(NCCC1CCN(S(=O)(=O)c2ccc(F)cc2)CC1)Nc1ccc(F)cc1`, the RP-LC retention time came to 909 s.

For the compound `O=C(NCCOc1ccc(F)cc1)c1ccc(S(=O)(=O)N2CCCC2)cc1`, the RP-LC retention time amounted to 813 s.

`COc1ccc2ncc(C#N)c(Nc3cc(OC)c(OC)c(OC)c3)c2c1`: the RP-LC retention time was 626 s.

`Cc1nc(-c2cccnc2)nc2c1CCC(=O)N2CCN(C)C`: the RP-LC retention time worked out at 503 s.

`COCCNC(=O)CN1c2ccccc2NC2=C(C(=O)CC(C)(C)C2)C1c1ccccc1OC` (stereo unspecified) registered an RP-LC retention time of 756 s.

Compound `CCn1ccc(C(=O)N2CCC(Nc3ncnc4c3CCC4)CC2)n1` displayed an RP-LC retention time of 553 s.

In turn, `CNc1ncnc2c1cnn2C1CCCCO1` (stereo unspecified) gave an RP-LC retention time of 635 s.

As to `Cc1ccc(NC(=O)C2(Cc3ccccc3)CCCCC(=O)N2)cc1` (stereo unspecified), the RP-LC retention time worked out at 848 s.

Take `Cc1cc(C(=O)Nc2cccn3c(C4CCC4)nnc23)no1`: the RP-LC retention time was determined as 724 s.

Regarding `CCN1c2ccccc2C(=O)NC12CCN(C(=O)Nc1ccc3c(c1)OCCO3)CC2`, the RP-LC retention time was found to be 737 s.

For `COc1cccc(Cn2nnc(C(=O)O)c2C(C)C)c1`, the RP-LC retention time was found to be 694 s.

For the compound `O=C(CNC(=O)C1CCCCC1)Nc1nc2ccccc2[nH]1`, the RP-LC retention time came out at 619 s.

For the compound `CCN(CC)c1nc2cc(C(=O)OC)ccc2c(=O)n1Cc1ccc(F)cc1`, the RP-LC retention time was 1180 s.

Compound `Cc1cccc(CN2CCC(CNC(=O)C3CCCN(c4nccc(C)n4)C3)CC2)c1` (stereo unspecified) came in with an RP-LC retention time of 615 s.

Compound `O=C(Cc1csc(Nc2ncccn2)n1)NCC(F)(F)F` displayed an RP-LC retention time of 626 s.

For `COc1ccccc1-c1noc(Cn2ccn3nc(-c4cccc5ccccc45)cc3c2=O)n1`, the RP-LC retention time is 1070 s.

As to `COc1ccccc1OCC(O)CN1CCN(CC(=O)Nc2c(C)cccc2C)CC1` (stereo unspecified), the RP-LC retention time is 683 s.

On to `Cc1ccnc(Nc2nc(-c3ccc(Cl)cc3)cs2)c1`, for which the RP-LC retention time is 947 s.

Turning to `Cc1ccn2cc(C(=O)N3CCN(c4ccccc4)CC3)nc2c1`, the RP-LC retention time amounted to 634 s.

`CCn1cc(-c2nc(CC(=O)NCc3cccs3)cs2)c2cccnc21` displayed an RP-LC retention time of 805 s.

Regarding `O=S(=O)(c1cccnc1)N1CCC2(CC1)NCCc1c2[nH]c2ccccc12`, the RP-LC retention time was 640 s.

Consider `Cc1ccc(NC(=O)c2cn(-c3cc(N(C)C)ncn3)cn2)cc1`, for which the RP-LC retention time came to 832 s.

The compound `CCn1ccc(C(=O)N2CC[C@H]3N(CCOC)S(=O)(=O)CC[C@]3(C(=O)N3CCOCC3)C2)n1` showed an RP-LC retention time of 622 s.

For the compound `CSc1cccc(NC(=O)C2CCCN(C(=O)c3ccc(Cl)cc3)C2)c1` (stereo unspecified), the RP-LC retention time turned out to be 973 s.

`COC(=O)c1c(-c2cccc(F)c2)noc1NCCc1c(C)noc1C` yielded an RP-LC retention time of 968 s.

`CCN1CCn2cc(S(=O)(=O)Nc3ccc(F)cc3)cc2C1=O` had an RP-LC retention time of 696 s.

In the case of `CC(C)c1noc(COC2CCN(C(=O)Cn3ccnc3)CC2)n1`, the RP-LC retention time came to 592 s.

For the compound `Cc1ccc(NC(=O)c2nc(C)oc2C)c(C)c1`, the RP-LC retention time turned out to be 753 s.

For the compound `O=C(Cn1nc(N2CCSCC2)c2ccccc2c1=O)Nc1ccccc1`, the RP-LC retention time was 890 s.

The compound `COc1cc(C)c(Cl)cc1S(=O)(=O)N1CCN(C(=O)c2ccco2)CC1` displayed an RP-LC retention time of 797 s.

As for `CCN1CCN(C(=O)C2CC(c3ccccc3)=NO2)CC1` (stereo unspecified), the RP-LC retention time came out at 593 s.

`CN(C)C(CNC(=O)Nc1ccccc1C(F)(F)F)c1ccco1` (stereo unspecified) came in with an RP-LC retention time of 566 s.

`Clc1ccc(-c2ccc(CNC3CC3)o2)c(Cl)c1` displayed an RP-LC retention time of 716 s.

The compound `CCCc1nnsc1C(=O)NCC(c1cccs1)S(=O)(=O)c1ccc(C)cc1` (stereo unspecified) yielded an RP-LC retention time of 921 s.

`COc1cccc(NC(=O)N2CCN(Cc3nc4ccc(Cl)cc4o3)CC2)c1` had an RP-LC retention time of 726 s.

Compound `COc1ccc(Br)cc1CNC(=O)Cn1cc(-c2nnc(C)o2)c2ccccc21` showed an RP-LC retention time of 847 s.

On to `NC(=O)c1cc(-c2ccccc2)nc2ccccc12`, for which the RP-LC retention time is 743 s.

For the compound `Cc1cc2nc(-c3ccccn3)c(-c3ccccn3)nc2cc1C`, the RP-LC retention time worked out at 797 s.

`Cc1ccccc1-c1nnc(CSc2nnc(NC(=O)C(C)C)s2)o1` yielded an RP-LC retention time of 843 s.

With `CCCN1CCN(CCCNC(=O)c2c(N3CCCC3=O)c3cc(F)ccc3n2CC)CC1`, the RP-LC retention time came out at 602 s.

`COc1ccc(N2CCN(c3cc(SCC(=O)NCC4CCCO4)ncn3)CC2)cc1` (stereo unspecified) displayed an RP-LC retention time of 713 s.

The compound `CC(=O)N1CCCSc2ccc(S(=O)(=O)N3CCCC3)cc21` returned an RP-LC retention time of 774 s.

Turning to `CC(O)(CNC(=O)c1cnc2ccccc2n1)c1ccccc1` (stereo unspecified), the RP-LC retention time turned out to be 734 s.

Compound `CCN1CCN(CCNC(=O)C2CCCN(C(=O)c3[nH]c(C)c(C(=O)OC(C)C)c3C)C2)CC1` (stereo unspecified) returned an RP-LC retention time of 596 s.

`COCCNC(=O)N1CC(c2nc(C3CC3)no2)C1` displayed an RP-LC retention time of 578 s.

`Cc1ccc(-n2nc(N3CCN(C(=O)Nc4ccccc4Cl)CC3)ccc2=O)cc1`: the RP-LC retention time was 833 s.

`CC(C)n1c(N2CCN(C(=O)c3c(F)cccc3F)CC2)cc(=O)n(C(C)C)c1=O` returned an RP-LC retention time of 814 s.

With `O=C(NCCc1ccccc1)C(=O)NCC(c1ccc2c(c1)OCO2)N1CCOCC1` (stereo unspecified), the RP-LC retention time was found to be 672 s.

Turning to `CCCNC(=O)CN1CCN(c2cc(C(=O)O)c3cc(NC(=O)C(C)C)ccc3n2)CC1`, the RP-LC retention time amounted to 568 s.

The compound `O=C(NCc1csc(C2CCCN(C(=O)C3CCCCC3)C2)n1)C1CCC1` (stereo unspecified) displayed an RP-LC retention time of 774 s.

In turn, `CC(=O)N1c2ccc(S(=O)(=O)N3CCCCC3)cc2CC1C(=O)Nc1ccc(C)c(C)c1` (stereo unspecified) registered an RP-LC retention time of 966 s.

With `Cc1cc2c(cc1S(=O)(=O)N1CCN(c3ccccn3)CC1)OCCN2C`, the RP-LC retention time worked out at 668 s.

Regarding `Cc1cc(C)c2c(N3CCOCC3)nc(C(=O)NCC3CCCO3)nc2n1` (stereo unspecified), the RP-LC retention time stood at 585 s.

`COc1ccc(NC(=O)CSc2nccnc2-n2nc(C)cc2C)cc1OC` had an RP-LC retention time of 702 s.

In the case of `Cc1ccc(-n2nc(C)c3c(C(F)(F)F)cc(OCC(=O)NCc4ccco4)nc32)cc1`, the RP-LC retention time amounted to 1220 s.

For the compound `COc1ccc(Cl)cc1S(=O)(=O)N1CCC(C(=O)NCCc2ccccc2)CC1`, the RP-LC retention time came out at 909 s.

In the case of `COc1ccc(NC(=O)N2CCC3(CC2)Nc2ccccc2-n2cccc23)c(OC)c1`, the RP-LC retention time amounted to 1000 s.

In turn, `CCCN1CCN(C(=O)c2cccn2Cc2noc(-c3ccccc3)n2)CC1` yielded an RP-LC retention time of 653 s.

As for `CCn1ncc(C(=O)NCCn2c(C)cnc2C2CCC2)c1C`, the RP-LC retention time turned out to be 567 s.

Compound `OC1CCOC2(CCN(Cc3ccccc3OC(F)(F)F)CC2)C1` (stereo unspecified) displayed an RP-LC retention time of 602 s.

`Cc1ccc(C(=O)NCc2nc(-c3ccc4c(c3)oc(=O)n4C(C)C)no2)cc1`: the RP-LC retention time was found to be 871 s.

For `COc1cc(OC)cc(-c2nc(-c3ccc4nnn(C(C)C)c4c3)no2)c1`, the RP-LC retention time turned out to be 1160 s.

With `CCOC(=O)CNC(=O)NCCc1nc2cccnc2n1Cc1ccccc1`, the RP-LC retention time is 648 s.

For `O=c1n(Cc2cccc(Br)c2)nc2c(S(=O)(=O)N3CCCCC3)cccn12`, the RP-LC retention time is 941 s.

Compound `NC(=O)C1(c2ccccc2Cl)CC1` gave an RP-LC retention time of 692 s.

`COc1cccc(CC(=O)N2CCC3(CC2)NC(=O)c2ccc(F)cc2N3C)c1` returned an RP-LC retention time of 756 s.

In turn, `COc1ccccc1-c1noc(C2CCCN2C(=O)Nc2ccc3c(c2)OCCO3)n1` (stereo unspecified) displayed an RP-LC retention time of 762 s.

In the case of `COc1ccc(-c2noc(Cn3c(=O)n(CC(C)C)c(=O)c4ccccc43)n2)cc1OC`, the RP-LC retention time worked out at 1050 s.

For `Cc1ccc(NC(=O)CN2C(=O)NC(c3ccccc3Cl)C3=C2COC3=O)cc1C` (stereo unspecified), the RP-LC retention time amounted to 819 s.

As to `COc1ccc(CN2C=C(C(=O)OCc3nc(-c4cccs4)no3)C(C)=NS2(=O)=O)cc1`, the RP-LC retention time is 1090 s.

As to `CN(C)[C@@H]1CN(C(=O)CCc2nc3ccc(Cl)cc3[nH]2)C[C@H]1CO`, the RP-LC retention time worked out at 529 s.

The compound `COc1cc(N2C=C(C#N)S(=O)(=O)c3ccc(C)cc32)cc(OC)c1OC` registered an RP-LC retention time of 887 s.

In turn, `CCn1ncc(NC(=O)COc2ccc(C)cc2)c(N2CCOCC2)c1=O` came in with an RP-LC retention time of 764 s.

As to `O=C(Nc1nnc(-c2cc3ccccc3o2)o1)c1ccc(Cl)s1`, the RP-LC retention time worked out at 902 s.

On to `O=C(Nc1ccc2c(c1)CCC(=O)N2Cc1ccccc1)c1ccccc1C(F)(F)F`, for which the RP-LC retention time turned out to be 855 s.

Compound `O=C(NCCc1csc(-c2cccs2)n1)C1CCN(S(=O)(=O)c2cccc(Cl)c2)CC1` registered an RP-LC retention time of 975 s.

Consider `CS(=O)(=O)N1CCC(C(=O)N2CCCc3ccccc32)Oc2ccc(Cl)cc21` (stereo unspecified), for which the RP-LC retention time was 991 s.

Regarding `O=C(c1ccc(-c2ccc3c(c2)CCN3S(=O)(=O)c2ccccc2)cc1)N1CCOCC1`, the RP-LC retention time is 885 s.

`CCc1ccc(C(=O)N2CCc3[nH]nc(C(=O)N(C)C)c3C2)cc1` yielded an RP-LC retention time of 659 s.

`CN(C1CCOCC1)C1CCN(C(=O)c2ccc(Cl)cc2)CC1` showed an RP-LC retention time of 589 s.
